Measured values as given in patent US8389523B2, “Substituted quinoxaline and an agrochemical composition thereof” (Kumiai Chemical Industry Co., Ltd., priority 2007, dated 2013).

What was measured:
Assay type in all cases: in vivo
Design in all cases: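 grade 0 to 5 of growth suppression where 5 is 90% or more and 0 below 10%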
[1] = system: Abutilon theophrasti medicus; experiment: Herbicidal effects in upland field foliar treatment (Test Example 3); conditions: criteria of Table 138; for herbicidal effects on Abutilon theophrasti medicus: 1000 g of the active ingredient per hectare, 14th day after the treatment, wettable powder; for herbicidal effect (index) on Abutilon theophrasti medicus: 1000 g active ingredient per hectare, 14th day after treatment
Procedure, shortened: (§1)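 Weeds were sown in upland field soil and grown two weeks in a greenhouse before a foliar spray over the whole plant. Wettable powder was diluted in water and applied at 1000 L/ha, delivering 1000 g active ingredient/ha. Herbicidal effect was scored against set rating criteria 14 days after treatment.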

Amaranthus viridis L. [2] = experiment: as above; conditions: criteria of Table 138; for herbicidal effects on Amaranthus viridis L.: 1000 g of the active ingredient per hectare, 14th day after the treatment, wettable powder; for herbicidal effect (index) on Amaranthus viridis L.: 1000 g active ingredient per hectare, 14th day after treatment
Procedure, shortened: as §1

[3] = system: Echinochloa crus-galli (L.) P. Beauv. var. crus-galli; experiment: as above; conditions: criteria of Table 138; for herbicidal effects on Echinochloa crus-galli (L.) P. Beauv. var. crus-galli: 1000 g of the active ingredient per hectare, 14th day after the treatment, wettable powder; for herbicidal effect (index) on Echinochloa crus-galli (L.) P. Beauv. var. crus-galli: 1000 g active ingredient per hectare, 14th day after treatment
Procedure, shortened: as §1

[4] = system: Abutilon theophrasti medicus; experiment: Herbicidal effects in upland field soil treatment (Test Example 2); conditions: 1000 g active ingredient per hectare, 21st day after treatment, criteria of Table 138
Procedure, shortened: (§2)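 Pre-emergence soil application: seeds sown in upland field soil, covered, then wettable powder diluted in water sprayed on the soil surface at 1000 g active ingredient/ha in 1000 L/ha. Plants grown in greenhouse; herbicidal effect scored on a rating scale 21 days after treatment.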

Amaranthus viridis L. [5] = experiment: as above; conditions: 1000 g active ingredient per hectare, 21st day after treatment, criteria of Table 138
Procedure, shortened: as §2

[6] = system: Scirpus juncoides Roxb. var. ohwianus. T. Koyama; experiment: Herbicidal effects in paddy field soil treatment (Test Example 1); conditions: paddy field soil treatment; 1000 g of the active ingredient per hectare; wettable powder added dropwise on water surface; 21st day after treatment
Procedure, shortened: (§3)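 Weed seeds were sown into puddled, leveled paddy soil in pots and flooded to 3 cm water depth. One day later the diluted wettable powder formulation was dropped onto the water surface at 1000 g active ingredient per hectare. Herbicidal effect was scored on day 21 after greenhouse growth.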

[7] = system: Monochoria vaginalis (Burm. f.) Presl var. plantaginea (Roxb.) Solms-Laub.; experiment: as above; conditions: paddy field soil treatment; 1000 g of the active ingredient per hectare; wettable powder added dropwise on water surface; 21st day after treatment
Procedure, shortened: as §3

[8] = system: Echinochloa oryzicola Vasing; experiment: as above; conditions: paddy field soil treatment; 1000 g of the active ingredient per hectare; wettable powder added dropwise on water surface; 21st day after treatment
Procedure, shortened: as §3

Row | Structure (SMILES) | herbicidal effects on Abutilon theophrasti medicus [1] | herbicidal effects on Amaranthus viridis L. (Amaranthus viridis L. [2]) | herbicidal effects on Echinochloa crus-galli (L.) P. Beauv. var. crus-galli [3] | herbicidal effect (index) on Abutilon theophrasti medicus [4] | herbicidal effect (index) on Amaranthus viridis L. (Amaranthus viridis L. [5]) | Herbicidal effects index, Scirpus juncoides Roxb. var. ohwianus. T. Koyama [6] | Herbicidal effects index, Monochoria vaginalis (Burm. f.) Presl var. plantaginea (Roxb.) Solms-Laub. [7] | Herbicidal effects index, Echinochloa oryzicola Vasing [8] | herbicidal effect (index) on Abutilon theophrasti medicus [1] | herbicidal effect (index) on Amaranthus viridis L. (Amaranthus viridis L. [2]) | herbicidal effect (index) on Echinochloa crus-galli (L.) P. Beauv. var. crus-galli [3]
1 | O=C1CCCC(O)=C1C(=O)c1nc2ccc(F)cc2n(-c2ccc3c(c2)OCO3)c1=O [II-225] | 5 | 5 | 5 | 5 | 5 | 5 | 5 | 5 |  |  | 
2 | O=C1CCCC(O)=C1C(=O)c1nc2ccccc2n(-c2cccc(OC(F)(F)F)c2)c1=O [II-101] | 5 | 5 | 5 | 5 | 5 | 5 | 5 | 5 |  |  | 
3 | O=C1CCCC(O)=C1C(=O)c1nc2ccccc2n(-c2nncs2)c1=O [I-269] |  |  |  | 5 | 5 | 5 | 5 | 5 | 5 | 5 | 5
4 | CCCCn1c(=O)c(C(=O)C2=C(O)CCCC2=O)nc2ccccc21 [Compound I-15] |  |  |  | 5 | 5 | 5 | 5 | 5 | 5 | 5 | 5
5 | CC1(C)C(=O)C(C(=O)c2nc3ccccc3n(-c3ccccc3)c2=O)=C(O)C(C)(C)C1=O [II-5] |  |  |  | 5 | 5 | 5 | 5 | 5 | 5 | 5 | 5
6 | N#Cc1ccc(-n2c(=O)c(C(=O)C3=C(O)CCCC3=O)nc3ccccc32)cc1 [II-137] | 5 | 5 | 5 | 5 | 5 | 5 | 5 | 5 |  |  | 
7 | Cc1cc(-n2c(=O)c(C(=O)C3=C(O)C(C)(C)C(=O)C(C)(C)C3=O)nc3ccccc32)no1 [I-149] |  |  |  | 5 | 5 | 4 | 5 | 5 | 5 | 5 | 5
8 | Cn1c(=O)c(C(=O)C2=C(O)CCCC2=O)nc2cc(F)ccc21 [I-220] |  |  |  | 5 | 5 | 5 | 5 | 5 | 5 | 5 | 5
9 | COc1cc(F)c(-n2c(=O)c(C(=O)C3=C(O)CCCC3=O)nc3ccccc32)cc1F [II-219] | 5 | 5 | 5 | 5 | 5 | 5 | 5 | 5 |  |  | 
10 | Cc1cnc(-n2c(=O)c(C(=O)C3=C(O)CCCC3=O)nc3ccccc32)s1 [I-380] |  |  |  | 5 | 5 | 5 | 5 | 4 | 5 | 5 | 4
11 | O=C1CCCC(O)=C1C(=O)c1nc2cc(F)c(F)cc2n(-c2ccccc2)c1=O [II-260] | 5 | 5 | 5 | 5 | 5 | 5 | 5 | 5 |  |  | 
12 | Cc1nc(-n2c(=O)c(C(=O)C3=C(O)CCCC3=O)nc3ccccc32)no1 [I-163] |  |  |  | 5 | 5 | 5 | 5 | 4 | 5 | 5 | 4
13 | O=C1CCCC(O)=C1C(=O)c1nc2cc(C(F)(F)F)ccc2n(-c2ccccc2)c1=O [II-249] | 5 | 5 | 5 | 5 | 5 | 5 | 5 | 5 |  |  | 
14 | Cc1ccc(-n2c(=O)c(C(=O)C3=C(O)CCCC3=O)nc3ccccc32)cc1C [II-211] | 5 | 5 | 5 | 5 | 5 | 5 | 5 | 5 |  |  | 
15 | C=CCn1c(=O)c(C(=O)C2=C(O)CCCC2=O)nc2cccnc21 [III-30] | 5 | 5 | 4 | 5 | 5 | 5 | 5 | 4 |  |  | 
